Test results: patent US5436229A, “Bisulfite adducts of arginine aldehydes” (Eli Lilly and Company, priority 1994, dated 1995)

Tests used:
Type in all cases: biochemical
[1] = tested on: human plasma; assay: Human plasma anticoagulation, thrombin time (TT)
Procedure: (§1) Fibrinogen is prepared from in-date ACD human blood as the fraction I-2 according to previous procedures and specifications. Smith, Biochem. […] Coagulation reagents ACTIN, Thromboplastin, and Human plasma are from Baxter Healthcare Corp., Dade Division, Miami, Fla. Bovine thrombin from Parke-Davis (Detroit, Mich.) is used for coagulation assays in plasma. Coagulation assay procedures are as previously described. […] A CoAScreener coagulation instrument (American LABor, Inc.) is used for all coagulation assay measurements. […] The compounds of formula I are added to human or animal plasma over a wide range of concentrations to determine prolongation effects on the APTT, PT, and TT assays. Linear extrapolations are performed to estimate the concentrations required to double the clotting time for each assay.

[2] = target: human thrombin (Homo sapiens, UniProt P00734); assay: Thrombin amidase inhibition (Kass), chromogenic substrate
Procedure: The assay is carried out by mixing 50 μl buffer (0.03M Tris, 0.15M NaCl, pH 7.4) with 25 μl of human thrombin solution (purified human thrombin, Enzyme Research Laboratories, South Bend, Ind., at 8 NIH units/ml) and 25 μl of test compound in a solvent (50% aqueous methanol (v:v)). Then 150 μl of an aqueous solution of the chromogenic substate (at 0.25 mg/ml) are added and the rates of hydrolysis of the substrate are measured by monitoring the reactions at 405 nm for the release of p-nitroaniline. Standard curves are constructed by plotting free thrombin concentration against hydrolysis rate. […] The amount of free inhibitor in each assay is calculated by subtracting the number of moles of bound thrombin from the number of moles of added inhibitor (test compound).
The Kass value is the hypothetical equilibrium constant for the reaction between thrombin and the test compound (I) . [formula]
Kass is calculated for a range of concentrations of test compounds and the mean value reported in units of liter per mole.

[3] = target: T1, Human plasmin (Homo sapiens, UniProt P00747); assay: Serine protease inhibition (Kass), plasmin
T1 construct: Human plasmin is purchased from Boehringer Mannheim; purchased Boehringer Mannheim, Indianapolis, Ind
T1 sequence (P00747 581-810 limits assumed): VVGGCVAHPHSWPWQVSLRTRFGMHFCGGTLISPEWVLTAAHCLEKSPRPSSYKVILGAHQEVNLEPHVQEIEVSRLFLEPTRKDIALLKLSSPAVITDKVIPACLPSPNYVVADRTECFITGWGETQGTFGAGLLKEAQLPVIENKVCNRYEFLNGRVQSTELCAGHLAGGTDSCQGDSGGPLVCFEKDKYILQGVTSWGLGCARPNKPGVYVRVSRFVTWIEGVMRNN
T1 sequence (P00747 97-580 partner limits assumed): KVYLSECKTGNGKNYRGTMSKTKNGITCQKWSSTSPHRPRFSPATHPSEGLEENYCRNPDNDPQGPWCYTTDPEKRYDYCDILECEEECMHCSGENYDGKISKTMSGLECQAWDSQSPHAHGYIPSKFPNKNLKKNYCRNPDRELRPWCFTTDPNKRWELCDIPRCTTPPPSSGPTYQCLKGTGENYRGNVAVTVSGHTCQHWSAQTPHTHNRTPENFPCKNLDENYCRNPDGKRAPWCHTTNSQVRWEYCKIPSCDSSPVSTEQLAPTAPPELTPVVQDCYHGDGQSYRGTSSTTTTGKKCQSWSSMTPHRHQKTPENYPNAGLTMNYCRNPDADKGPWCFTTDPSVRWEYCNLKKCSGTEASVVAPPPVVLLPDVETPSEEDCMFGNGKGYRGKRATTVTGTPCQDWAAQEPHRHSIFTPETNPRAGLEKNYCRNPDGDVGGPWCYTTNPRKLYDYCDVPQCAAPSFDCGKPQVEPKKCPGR
Procedure: (§2) By substantially following the procedures described above for human thrombin, and using other human blood coagulation system serine proteases and using fibrinolytic system serine proteases, with the appropriate chromogenic substrates, identified below, the selectivity of the compounds of the present invention with respect to the coagulation factor serine proteases and to the fibronolytic serine proteases are evaluated as well as their substantial lack of interference with human plasma clot fibrinolysis.
(§3) Human plasmin is purchased from Boehringer Mannheim, Indianapolis, Ind.; nt-PA is purchased as single chain activity reference from American Diagnostica, Greenwich, Conn.; modified-t-PA6 (mt-PA6) is prepared at Eli Lilly and Company by procedure known in the art (See, Burck, et al., J. Biol. Chem., 265, […] (1990). Plasmin chromogenic substrate H-D-Val-Leu-Lys-p-nitroanilide and tissue plasminogen activator (t-PA) substrate H-D-Ile-Pro-Arg-p-nitroanilide are purchased from Kabi Vitrum, Stockholm, Sweden.

[4] = tested on: human plasma; assay: Human plasma anticoagulation, prothrombin time (PT)
Procedure: as §1

[5] = target: T2, factor Xa (Homo sapiens, UniProt P00742); assay: Serine protease inhibition (Kass), factor Xa
T2 construct: Human factors X, Xa, IXa, XIa, and XIIa are purchased from Enzyme Research Laboratories; purchased Enzyme Research Laboratories, South Bend, Ind
T2 sequence (P00742 235-488 limits assumed): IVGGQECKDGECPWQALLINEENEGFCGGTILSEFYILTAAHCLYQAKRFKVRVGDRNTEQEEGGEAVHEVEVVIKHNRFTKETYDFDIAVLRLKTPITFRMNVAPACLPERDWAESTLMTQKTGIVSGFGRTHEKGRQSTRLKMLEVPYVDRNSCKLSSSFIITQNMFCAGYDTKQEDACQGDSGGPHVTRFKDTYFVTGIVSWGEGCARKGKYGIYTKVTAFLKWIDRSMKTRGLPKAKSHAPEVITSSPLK
T2 sequence (P00742 41-179 partner limits assumed): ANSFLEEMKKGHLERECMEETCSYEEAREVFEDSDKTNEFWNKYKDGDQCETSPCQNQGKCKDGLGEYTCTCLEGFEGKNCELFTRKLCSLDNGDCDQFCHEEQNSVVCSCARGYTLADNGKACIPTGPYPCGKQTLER
Procedure: as §2
(§4) Human factors X, Xa, IXa, XIa, and XIIa are purchased from Enzyme Research Laboratories, South Bend, Ind.; human urokinase from Leo Pharmaceuticals, Denmark; and recombinant activated Protein C (aPC) is prepared at Eli Lilly and Co. substantially according to U.S. Pat. No. 4,981,952 incorporated by reference herein in its entirety. Chromogenic substrates: N-Benzoyl-Ile-Glu-Gly-Arg-p-nitroanilide (for factor Xa); N-Cbz-D-Arg-Gly-Arg-p-nitroanilide (for factor IXa assay as the factor Xa substrate); Pyroglutamyl-Pro-Arg-p-nitroanilide (for Factor XIa and for aPC); H-D-Pro-Phe-Arg-p-nitroanilide (for factor XIIa); and Pyroglutamyl-Gly-Arg-p-nitroanilide (for urokinase); are purchased from KabiVitrum, Stockholm, Sweden, or from Midwest Biotech, Fishers, Ind. Bovine trypsin is purchased from Worthington Biochemicals, Freehold, N.J., and human plasma kallikrein from Kabi Vitrum, Stockholm, Sweden. Chromogenic substrate H-D-Pro-Phe-Arg-p-nitroanilide for plasma kallikrein is purchased from Kabi Vitrum, Stockholm, Sweden. N-Benzoyl-Phe-Val-Arg-p-nitroanilide, the substrate for human thrombin and for trypsin, is synthesized according to procedures described above for the compounds of the present invention, using known methods of peptide coupling from commercially available reactants, or purchaed from Midwest Biotech, Fishers, Ind.

[6] = target: T3, tissue plasminogen activator (t-PA) (Homo sapiens, UniProt P00750); assay: Serine protease inhibition (Kass), t-PA
T3 construct: purchased American Diagnostica, Greenwich, Conn
T3 sequence (P00750 36-562): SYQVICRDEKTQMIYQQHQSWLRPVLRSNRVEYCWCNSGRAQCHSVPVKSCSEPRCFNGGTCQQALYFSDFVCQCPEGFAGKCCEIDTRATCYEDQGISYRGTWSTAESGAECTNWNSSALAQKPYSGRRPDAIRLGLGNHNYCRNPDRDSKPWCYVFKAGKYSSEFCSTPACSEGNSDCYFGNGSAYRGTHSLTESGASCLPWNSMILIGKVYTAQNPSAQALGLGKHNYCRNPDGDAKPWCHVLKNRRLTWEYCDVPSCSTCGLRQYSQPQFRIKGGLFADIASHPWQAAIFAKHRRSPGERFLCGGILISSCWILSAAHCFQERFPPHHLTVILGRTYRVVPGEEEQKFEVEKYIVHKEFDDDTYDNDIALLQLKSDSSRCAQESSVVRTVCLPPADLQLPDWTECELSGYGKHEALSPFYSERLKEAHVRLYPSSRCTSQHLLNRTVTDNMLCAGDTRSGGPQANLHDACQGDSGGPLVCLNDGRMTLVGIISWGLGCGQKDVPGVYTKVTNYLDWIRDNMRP
Procedure: as §2, §3

[7] = target: T4, Bovine trypsin (Bos taurus, UniProt P00760); assay: Serine protease inhibition (Kass), trypsin
T4 construct: Bovine trypsin is purchased from Worthington Biochemicals; purchased Worthington Biochemicals, Freehold, N.J
T4 sequence (P00760 24-246): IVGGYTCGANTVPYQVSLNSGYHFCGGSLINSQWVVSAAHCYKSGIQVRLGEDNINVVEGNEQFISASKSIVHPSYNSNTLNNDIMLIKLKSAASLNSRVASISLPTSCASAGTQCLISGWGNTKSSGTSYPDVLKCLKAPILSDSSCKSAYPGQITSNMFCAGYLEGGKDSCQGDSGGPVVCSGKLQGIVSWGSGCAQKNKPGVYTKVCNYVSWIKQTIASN
Procedure: as §2, §4

[8] = tested on: human plasma; assay: Human plasma anticoagulation, activated partial thromboplastin time (APTT)
Procedure: as §1

| Kass Human Thrombin [2] | Kass Plasmin [3] | Kass Xa [5] | Kass t-PA [6] | Kass Trypsin [7] | Structure (SMILES) | 2 × Clotting time TT [1] | 2 × Clotting time PT [4] | 2 × Clotting time APTT [8] |
| --- | --- | --- | --- | --- | --- | --- | --- | --- |
| 200 L/mol × 10^6 | 9.5 L/mol × 10^6 | 8.8 L/mol × 10^6 | 1.5 L/mol × 10^6 | 150 L/mol × 10^6 | COc1ccc(OC)c(S(=O)(=O)N[C@H](Cc2ccccc2)C(=O)N2CCC[C@H]2C(=O)N[C@H](C=O)CCCNC(=N)N)c1.Cl [Example 59, N-(2,5-dimethoxyphenylsulfonyl)-D-phenylalanyl-L-Prolinyl-L-Arginine Aldehyde Hydrochloride] | 92 ng/mL | 2,000 ng/mL | 550 ng/mL |
| 260 L/mol × 10^6 | 18 L/mol × 10^6 | 11 L/mol × 10^6 | 2.7 L/mol × 10^6 | 200 L/mol × 10^6 | Cc1noc(C)c1S(=O)(=O)N[C@H](Cc1ccccc1)C(=O)N1CCC[C@H]1C(=O)N[C@H](C=O)CCCNC(=N)N.Cl [Example 60, N-(3,5-dimethyl-4-isoxazolylsulfonyl)-D-phenylalanyl-L-Prolinyl-L-Arginine Aldehyde Hydrochloride] | 33 ng/mL | 1,300 ng/mL | 430 ng/mL |
| 68 L/mol × 10^6 | 3.4 L/mol × 10^6 | 2.8 L/mol × 10^6 | 0.31 L/mol × 10^6 | 52 L/mol × 10^6 | Cl.N=C(N)NCCC[C@@H](C=O)NC(=O)[C@@H]1CCCN1C(=O)[C@@H](Cc1ccccc1)NS(=O)(=O)c1nccs1 [Example 63, N-(2-thiazolylsulfonyl)-D-phenylalanyl-L-Prolinyl-L-Arginine Aldehyde Hydrochloride] | 66 ng/mL | 2,900 ng/mL | 810 ng/mL |
| 510 L/mol × 10^6 | 14 L/mol × 10^6 | 45 L/mol × 10^6 | 0.34 L/mol × 10^6 | 160 L/mol × 10^6 | CCS(=O)(=O)N[C@@H](C(=O)N1CCC[C@H]1C(=O)N[C@H](C=O)CCCNC(=N)N)c1ccccc1.Cl [Example 64, N-(ethylsulfonyl)-D-phenylglycinyl-L-Prolinyl-L-Arginine Aldehyde Hydrochloride] | 34 ng/mL | 880 ng/mL | 250 ng/mL |

More lines, now with the values behind:

| Structure (SMILES) | Kass Human Thrombin [2] | Kass Plasmin [3] | Kass Xa [5] | Kass t-PA [6] | Kass Trypsin [7] | 2 × Clotting time TT [1] | 2 × Clotting time PT [4] | 2 × Clotting time APTT [8] |
| --- | --- | --- | --- | --- | --- | --- | --- | --- |
| CCS(=O)(=O)NC(C)(C(=O)N1CCC[C@H]1C(=O)N[C@H](C=O)CCCNC(=N)N)c1ccccc1.Cl (stereo partly drawn) [Example 41, N-ethylsulfonyl-(D,L)-phenylglycinyl(αmethyl)-L-prolinyl-L-arginine aldehyde hydrochloride] | 430 L/mol × 10^6 | 1.2 L/mol × 10^6 | 0.49 L/mol × 10^6 | 0.023 L/mol × 10^6 | 42 L/mol × 10^6 | 52 ng/mL | 2,100 ng/mL | 1,200 ng/mL |
| C[C@@]1(C(=O)N[C@H](C=O)CCCNC(=N)N)CCCN1C(=O)[C@@H](Cc1ccccc1)NS(C)(=O)=O.Cl [Example 43, N-methylsulfonyl-D-phenylalanyl(αmethyl)-L-prolinyl-L-arginine aldehyde hydrochloride] | 31 L/mol × 10^6 | 0.56 L/mol × 10^6 | 0.23 L/mol × 10^6 | 0.027 L/mol × 10^6 | 28 L/mol × 10^6 | 41 ng/mL | 1,600 ng/mL | 1,500 ng/mL |
| C[C@@]1(C(=O)N[C@H](C=O)CCCNC(=N)N)CCCN1C(=O)[C@H](Cc1ccccc1)NS(C)(=O)=O.Cl [Example 44, N-methylsulfonylphenylalanyl(αmethyl)-L-prolinyl-L-arginine aldehyde hydrochloride] | 2.1 L/mol × 10^6 | 0.031 L/mol × 10^6 | 0.033 L/mol × 10^6 | 0.0023 L/mol × 10^6 | 1.4 L/mol × 10^6 | 560 ng/mL | 11,000 ng/mL | 12,000 ng/mL |
| Cl.N=C(N)NCCC[C@@H](C=O)NC(=O)[C@@H]1CCCN1C(=O)[C@@H](Cc1ccccc1)NC(=O)Cc1cccnc1 [Example 48, N-(3-pyridylacetyl)-D-phenylalanyl-L-Prolinyl-L-Arginine Aldehyde Hydrochloride] | 13 L/mol × 10^6 | 0.27 L/mol × 10^6 | 0.067 L/mol × 10^6 | 0.22 L/mol × 10^6 | 5.2 L/mol × 10^6 | 150 ng/mL | 3,400 ng/mL | 2,300 ng/mL |
| Cl.Cn1c(C(=O)N[C@H](CC2CCCCC2)C(=O)N2CCC[C@H]2C(=O)N[C@H](C=O)CCCNC(=N)N)cc2ccccc21 [Example 49, N-(1-methylindolyl-2-carbonyl)-D-cyclohexylalanyl-L-Prolinyl-L-Arginine Aldehyde Hydrochlonde] | 320 L/mol × 10^6 | 25 L/mol × 10^6 | 4.6 L/mol × 10^6 | 1.1 L/mol × 10^6 | 7.9 L/mol × 10^6 | 110 ng/mL | 2,500 ng/mL | 1,000 ng/mL |
| Cl.N=C(N)NCCC[C@@H](C=O)NC(=O)[C@@H]1CCCN1C(=O)[C@@H](CC1CCCCC1)NC(=O)c1cc2ccccc2cn1 [Example 50, N-(isoquinolinyl-2-carbonyl)-D-cyclohexylalanyl-L-Prolinyl-L-Arginine Aldehyde Hydrochloride] | 200 L/mol × 10^6 | 2.5 L/mol × 10^6 | 0.83 L/mol × 10^6 | 0.088 L/mol × 10^6 | 2.5 L/mol × 10^6 | 97 ng/mL | 2,700 ng/mL | 1,400 ng/mL |
| CCS(=O)(=O)N[C@@H](C(=O)N1CCC[C@H]1C(=O)N[C@H](C=O)CCCNC(=N)N)C1CCCCC1.Cl [Example 66, N-(ethylsulfonyl)-D-cyclohexylglycinyl-L-Prolinyl-L-Arginine Aldehyde Hydrochloride] | 260 L/mol × 10^6 | 13 L/mol × 10^6 | 24 L/mol × 10^6 | 0.11 L/mol × 10^6 | 260 L/mol × 10^6 | 46 ng/mL | 1,100 ng/mL | 330 ng/mL |
